Measurements reported in ChEMBL document CHEMBL1127467, “Molecular modeling studies of some choline acetyltransferase inhibitors” (J Med Chem, 1994).

Target: T1, Choline O-acetyltransferase (Homo sapiens, UniProt P28329)
T1 sequence (P28329 whole entry): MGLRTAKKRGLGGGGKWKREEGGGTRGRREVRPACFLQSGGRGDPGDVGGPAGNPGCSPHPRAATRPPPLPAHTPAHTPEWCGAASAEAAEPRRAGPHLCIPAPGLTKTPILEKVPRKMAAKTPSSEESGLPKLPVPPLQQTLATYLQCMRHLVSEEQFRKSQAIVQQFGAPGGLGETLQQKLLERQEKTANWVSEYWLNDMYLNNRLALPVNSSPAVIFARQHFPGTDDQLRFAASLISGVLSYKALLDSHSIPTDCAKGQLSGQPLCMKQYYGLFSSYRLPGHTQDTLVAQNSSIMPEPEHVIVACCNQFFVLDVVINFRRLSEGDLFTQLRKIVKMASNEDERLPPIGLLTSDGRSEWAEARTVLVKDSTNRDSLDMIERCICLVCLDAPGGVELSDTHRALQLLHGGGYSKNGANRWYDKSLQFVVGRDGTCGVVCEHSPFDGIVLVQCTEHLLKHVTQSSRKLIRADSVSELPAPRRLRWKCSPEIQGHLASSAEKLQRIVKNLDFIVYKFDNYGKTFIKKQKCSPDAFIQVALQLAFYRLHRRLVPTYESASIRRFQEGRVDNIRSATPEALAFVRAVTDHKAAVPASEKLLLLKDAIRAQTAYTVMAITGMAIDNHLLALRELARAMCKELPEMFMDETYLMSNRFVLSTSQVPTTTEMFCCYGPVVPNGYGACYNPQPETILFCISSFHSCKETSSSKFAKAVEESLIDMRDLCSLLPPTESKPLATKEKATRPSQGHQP
Assay: Inhibition of Choline Acetyltransferase
Settings: read-out: I50

Compound | IC50
Cc1c[n+](C)ccc1/C=C/c1ccccc1 | 5 µM
COc1ccc(/C=C/c2cc[n+](C)cc2)c2ccccc12 | > 100 µM
C[n+]1ccc(/C=N/c2cccc3ccccc23)cc1 | 1.5 µM
C[n+]1ccc(/C=C/c2cccc(Cl)c2)cc1 | 2.3 µM
CCc1c[n+](C)ccc1/C=C/c1ccccc1 | 19 µM
C/C(=C\c1ccccc1)c1cc[n+](C)cc1 | > 100 µM
C[n+]1ccc(/C=C/c2ccccc2Cl)cc1 | 28 µM
C[n+]1ccc(/C=C/c2cc3ccccc3c3ccccc23)cc1 | > 100 µM

The remaining lines, values ahead:

IC50 | Compound
> 100 µM | C[n+]1ccc(/N=C/c2cccc3ccccc23)cc1
13.5 µM | C[n+]1ccc(/C=C/c2ccccc2)cc1
0.4 µM | Cc1c[n+](C)ccc1/C=C/c1cccc2ccccc12
3.5 µM | C[n+]1ccc(/C=C/c2ccccc2)c2ccccc21
0.4 µM | C[n+]1ccc(/C=C/c2cccc3ccccc23)cc1
